Experiments:
[1] = system: immortalized human leiomyoma cell line (HuLM); test: BRD inhibitor screening by MTT cell proliferation assay, HuLM cells; assay type: cell-based; details: 24 hours and 48 hours
Method: (§1) The immortalized human leiomyoma cell line (HuLM) and immortalized human uterine smooth muscle (UTSM) cells were cultured and maintained in phenol red-free, Dulbecco's Modified Eagle Medium: Nutrient Mixture F-12. The cells were grown at 37° C. and 5% CO2 in an incubator with saturating humidity.
(§2) Cell proliferation was measured using a 3-(4,5-dimethylthiazol-2-yl)-2,5-diphenyltetrazolium bromide (MTT) assay. 2×10^4 UTSM or HuLM cells per well were seeded into 12-well tissue culture plates in the absence or presence of each BRD inhibitor from Table 1 for 24 hours or 48 hours. The inhibitors used in this assay were from the Epigenetic Library at the University of Illinois at Chicago. This assay was performed three times in triplicate.

[2] = system: immortalized human uterine smooth muscle (UTSM) cells; test: BRD inhibitor screening by MTT cell proliferation assay, UTSM cells; assay type: cell-based; details: 24 hours and 48 hours
Method: as §1, §2

[3] = system: UTSM and HuLM cells; test: Cell proliferation by trypan blue exclusion assay, HuLM versus UTSM cells; assay type: cell-based, human; details: 1-25 μM, 48 hours
Method: Cell proliferation was measured using trypan blue exclusion assay. UTSM and HuLM cells (2×10^4 cells per well) were seeded into 12-well tissue culture plates. After 24 hours the cells were cultured in the absence or presence of the BRD inhibitor I-BET762 or (+)-JQ1 at a dose range from 1-25 μM for 48 hours. DMSO was used as a vehicle control. Cells were trypsinized, collected by centrifuge, and resuspended in serum-free medium. Equal volumes of 0.4% trypan blue and cell suspension were mixed and cells were counted using a hemacytometer.

[4] = system: HuLM cells; test: Western immunoblot of HuLM cells after BRD inhibition treatment; assay type: cell-based, human; details: 0-25 μM, 48 hours
Source text: Cells were collected and lysed in RIPA lysis buffer with protease and phosphatase inhibitor cocktail (Thermo Scientific, Waltham, MA, USA), and the protein was quantified using the Bradford method (Bio-Rad Protein Assay kit). The antibodies used were: METTL3 (ab195352, Abcam), YTHDC1 (ab122340, Abcam), YTHDC2 (35440, Cell Signaling), YTHDF2 (ab220163, Abcam), BCL-2 (ab182858, Abcam), FN (26836, Cell Signaling), PCNA (GTX100539, Genetex), BRD2 (5848, cell signaling), BRD3 (ab50818, Abcam), BRD9 (58906, Cell Signaling). The antigen-antibody complex was detected with Trident Femto Western HRP substrate (GeneTex, Irvine, CA, USA). Specific protein bands were visualized using ChemiDoc XRS ? molecular imager (Bio-Rad, Hercules, CA, USA).
HuLM cells were cultured in phenol red-free, 10% fetal bovine serum Dulbecco's Modified Eagle Medium: Nutrient Mixture F-12 at 37° C., 5% CO2 in the absence or presence of the BRD inhibitors I-BRD9 and TP-472 for 48 hours respectively. The concentrations of both inhibitors were used in the range of 0-25 μM. Cells were collected after treatment for Western immunoblot as described above.

[5] = system: HuLM cells; test: RNA-sequencing / transcriptome analysis of treated HuLM cells; assay type: cell-based, human; details: 5 μM, 48 hr
Method: To determine the mechanism underlying the inhibitory effect of BRD9 inhibition on the UFs, the HuLM cells were treated with BRD9 inhibitor I-BRD9 (5 μM, n=4), TP-472 (5 μM, n=3), and DMSO vehicle control (n=4) for 48 hr. RNA was isolated using Trizol. RNA quality and quantity were assessed using the Agilent bio-analyzer. Strand-specific RNA-SEQ libraries were prepared using a TruSEQ total RNA-SEQ library protocol (Illumina provided). Library quality and quantity were assessed using the Agilent bio-analyzer and libraries were sequenced using an Illumina NovaSEQ6000 (illumine provided reagents and protocols).
A variety of R packages was used for this analysis. All graphics and data wrangling were handled using the tidyverse suite of packages (available from tidyverse.org). All packages used are available from the Comprehensive R Archive Network (CRAN), Bioconductor.org, or GitHub. The reads were mapped to the human reference transcriptome using STAR, version 2.6.1d, as previously described (Dobin et al., Bioinformatics 29 (1):15-21 (2013)). The quality of raw reads, as well as the results of STAR mapping, are generated using fastqc (available from bioinformatics.babraham.ac.uk/projects/fastqc/) and multiqc (available from multiqc.info). Raw reads were mapped to the human reference transcriptome using Salmon, version 1.4.0 (available from combine-lab.github.io/salmon/). After reading mapping with Salmon, Bioconductor (available from bioconductor.org/packages/release/bioc/html/tximport) was used to read Salmon outputs into the R environment. Annotation data from Gencode V34 was used to summarize data from transcript-level to gene-level.

SMILES	UF (HuLM) cell proliferation [1]	myometrial (UTSM) cell proliferation [2]	cellular proliferation, UF cells versus myometrium cells [3]	expression of YTHDC1 [4]	expression of YTHDC2 [4]	expression of YTHDF2 [4]	expression of anti-apoptosis protein BCL-2 [4]	fibronectin (FN) levels [4]	levels of PCNA (marker for cell proliferation) [4]	Hallmark analysis: pathway alteration in response to inhibition of BRD [5]	pathways altered (bioinformatic analysis of RNA sequencing) [5]	expression of METTL3 [4]
Cn1cc(CCn2cnc(-c3cnn(C)c3)c2-c2ccc(C#N)cc2)cn1 [BAZ2-ICR]	selectively inhibited UF	not myometrial cell proliferation	–	–	–	–	–	–	–	–	–	–
CCNC(=O)C[C@@H]1N=C(c2ccc(Cl)cc2)c2cc(OC)ccc2-n2c(C)nnc21 [I-BET762]	–	–	reduced cellular proliferation more potently in UF cells than myometrium cells in a dose dependent manner	–	–	–	–	–	–	–	–	–
CCn1cc(-c2cccc(C(F)(F)F)c2)c2sc(C(=N)NC3CCS(=O)(=O)CC3)cc2c1=O [I-BRD9]	selectively inhibited UF	not myometrial cell proliferation	–	dose-dependent downregulation	dose-dependent downregulation	dose-dependent downregulation	increased the expression of the anti-apoptosis protein BCL-2	decreased FN levels	decreasing the levels of PCNA	E2F, MYC Target, G2M checkpoint, and mitotic spindle pathways	altered the pathways related to biological processes, transcriptional factors	–
Cc1cc(=O)n(C)c2cc(N3C(=O)CC[C@H](NS(=O)(=O)CC(C)C)[C@H]3c3ccc(Cl)cc3)ccc12 [LP99]	selectively inhibited UF	not myometrial cell proliferation	–	–	–	–	–	–	–	–	–	–
CCCS(=O)(=O)c1nc(NC2CC2)cc(-c2ccc3c(ccn3C3CC(C)(C)NC(C)(C)C3)c2)n1 [NVS-CECR2-1]	selectively inhibited UF	not myometrial cell proliferation	–	–	–	–	–	–	–	–	–	–
CC(=O)c1cc(-c2cc(C(=O)NC3CC3)ccc2C)c2ncccn12 [TP-472]	selectively inhibited UF	not myometrial cell proliferation	–	dose-dependent downregulation	dose-dependent downregulation	–	–	decreased FN levels	decreasing the levels of PCNA	E2F, MYC Target, G2M checkpoint, and mitotic spindle pathways	altered the pathways related to biological processes, transcriptional factors	dose-dependent downregulation
